According to US9062071B2, “Substituted piperidines as HDM2 inhibitors” (Merck Sharp & Dohme Corp, priority 2011, dated 2015):
pIC50: −log10 of the molar value.

Molecular target: HDM2 protein (Homo sapiens, UniProt Q00987)
Test: fluorescence polarization screening assay (FP IC50)
Type: binding
Conditions: class symbols
Description: The compounds were evaluated to determine activity at the HDM2 protein by known methods such as the fluorescence polarization screening assay that measures the inhibitory concentration that achieves 50% of maximal activity (FP IC50) and the dissociation constant for inhibitor binding (FP Ki). [Zhang et al., J. Analytical Biochemistry 331: 138-146 (2004)].

Chain of HDM2 protein (Q00987 whole entry): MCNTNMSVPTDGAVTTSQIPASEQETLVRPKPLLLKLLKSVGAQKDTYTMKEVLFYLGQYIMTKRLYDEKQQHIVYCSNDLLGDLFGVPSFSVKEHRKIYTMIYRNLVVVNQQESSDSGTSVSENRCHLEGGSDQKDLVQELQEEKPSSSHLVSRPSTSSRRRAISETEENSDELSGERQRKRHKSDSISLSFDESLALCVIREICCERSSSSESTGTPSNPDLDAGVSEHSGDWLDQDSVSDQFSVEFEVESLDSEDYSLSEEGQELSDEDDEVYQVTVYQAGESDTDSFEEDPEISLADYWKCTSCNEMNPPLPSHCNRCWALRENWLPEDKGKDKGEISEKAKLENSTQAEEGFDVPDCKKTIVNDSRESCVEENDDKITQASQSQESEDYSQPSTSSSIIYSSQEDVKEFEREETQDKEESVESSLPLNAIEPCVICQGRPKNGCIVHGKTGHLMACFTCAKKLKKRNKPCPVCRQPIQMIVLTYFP

Compound | pIC50
CCC[C@H]1N(C(=O)c2ncccc2C(F)(F)F)CCC[C@@]1(Oc1csc(C(F)(F)F)c1)C(=O)N1Cc2sccc2CC1C(=O)O (stereo partly drawn) [Compound A173, 6-{[(2R,3S)-2-propyl-1-{[3-(trifluoromethyl)pyridin-2-yl]carbonyl}-3-{[5-(trifluoromethyl)thiophen-3-yl]oxy}piperidin-3-yl]carbonyl}-4,5,6,7-tetrahydrothieno[2,3-c]pyridine-5-carboxylic acid] | 4.70 to 7.00
CCC[C@H]1N(C(=O)c2ncccc2C(F)(F)F)CCC[C@@]1(Oc1csc(C(F)(F)F)c1)C(=O)N1CCc2cc(Cl)sc2C1C(=O)O (stereo partly drawn) [Compound A19, 2-chloro-6-{[(2R,3S)-2-propyl-1-{[3-(trifluoromethyl)pyridin-2-yl]carbonyl}-3-{[5-(trifluoromethyl)thiophen-3-yl]oxy}piperidin-3-yl]carbonyl}-4,5,6,7-tetrahydrothieno[2,3-c]pyridine-7-carboxylic acid] | 7.00 to 9.00
CCC[C@H]1N(C(=O)c2ncccc2C(F)(F)F)CCC[C@@]1(Oc1csc(C(F)(F)F)c1)C(=O)N1CCc2cc(Cl)ccc2[C@H]1CCC(=O)NC#N [Compound A79, 3-[(1R)-6-chloro-2-{[(2R,3S)-2-propyl-1-{[3-(trifluoromethyl)pyridin-2-yl]carbonyl}-3-{[5-(trifluoromethyl)thiophen-3-yl]oxy}piperidin-3-yl]carbonyl}-1,2,3,4-tetrahydroisoquinolin-1-yl]-N-cyanopropanamide] | 7.00 to 9.00
CCC[C@H]1N(C(=O)c2ncccc2C(F)(F)F)CCC[C@@]1(Oc1csc(C(F)(F)F)c1)C(=O)N1CCc2cc(Cl)ccc2C1CO (stereo partly drawn) [Compound A105, (6-chloro-2-{[(2R,3S)-2-propyl-1-{[3-(trifluoromethyl)pyridin-2-yl]carbonyl}-3-{[5-(trifluoromethyl)thiophen-3-yl]oxy}piperidin-3-yl]carbonyl}-1,2,3,4-tetrahydroisoquinolin-1-yl)methanol] | 4.70 to 7.00
CCC[C@H]1N(C(=O)c2ncccc2C(F)(F)F)CCC[C@@]1(Oc1csc(C(F)(F)F)c1)C(=O)N1CCc2cc(F)ccc2C1CCC(=O)O (stereo partly drawn) [Compound A39, 3-(6-fluoro-2-{[(2R,3S)-2-propyl-1-{[3-(trifluoromethyl)pyridin-2-yl]carbonyl}-3-{[5-(trifluoromethyl)thiophen-3-yl]oxy}piperidin-3-yl]carbonyl}-1,2,3,4-tetrahydroisoquinolin-1-yl)propanoic acid] | 7.00 to 9.00

Results, then the molecule that gave them:

pIC50 | Compound
7.00 to 9.00 | CCC[C@H]1N(C(=O)c2ncccc2C(F)(F)F)CCC[C@@]1(Oc1csc(C(F)(F)F)c1)C(=O)N1Cc2ccc(Cl)cc2C[C@@H]1COCC(=O)O [Compound A38, {[(3R)-6-chloro-2-{[(2R,3S)-2-propyl-1-{[3-(trifluoromethyl)pyridin-2-yl]carbonyl}-3-{[5-(trifluoromethyl)thiophen-3-yl]oxy}piperidin-3-yl]carbonyl}-1,2,3,4-tetrahydroisoquinolin-3-yl]methoxy}acetic acid]
7.00 to 9.00 | CCC[C@H]1N(C(=O)c2ncccc2C(F)(F)F)CCC[C@@]1(Oc1csc(C(F)(F)F)c1)C(=O)N1CCc2cc(Cl)ccc2C1CC(=O)O (stereo partly drawn) [Compound A55, (6-chloro-2-{[(2R,3S)-2-propyl-1-{[3-(trifluoromethyl)pyridin-2-yl]carbonyl}-3-{[5-(trifluoromethyl)thiophen-3-yl]oxy}piperidin-3-yl]carbonyl}-1,2,3,4-. tetrahydroisoquinolin-1-yl)acetic acid]
7.00 to 9.00 | CCC[C@H]1N(C(=O)c2ncccc2C(F)(F)F)CCC[C@@]1(Oc1csc(C(F)(F)F)c1)C(=O)N1CCc2cc(F)ccc2C1C(=O)O (stereo partly drawn) [Compound A104, 6-fluoro-2-{[(2R,3S)-2-propyl-1-{[3-(trifluoromethyl)pyridin-2-yl]carbonyl}-3-{[5-(trifluoromethyl)thiophen-3-yl]oxy}piperidin-3-yl]carbonyl}-1,2,3,4-tetrahydroisoquinoline-1-carboxylic acid]
